Tests used:
[1] = target: T1, G2019S human LRRK2, catalytic site (Homo sapiens, UniProt Q5S007, G2019S); assay: TR-FRET LanthaScreen Eu Kinase Binding Assay, LRRK2 G2019S; details: LRRK2(G2019); one range stated for wt and G2019; read-out: IC50, Activity Toward LRRK2(G2019)
T1 construct: G2019S human LRRK2, catalytic site; purchased ThermoFisher
Procedure, shortened: (§1)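 NUAK1: 8 nM enzyme, 2 nM Eu-anti-His antibody, 5 nM Tracer 236. LRRK2 wt/G2019S: 5 nM enzyme, 2 nM Eu-anti-GST antibody, 10 nM Tracer 236. Kinase Buffer A, 1 h RT, TR-FRET ratio.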

[2] = target: T2, wt human JAK1, catalytic site (Homo sapiens, UniProt P23458); assay: HTRF KinEASE assay, JAK1; format: biochemical; details: 2.5 μM ATP; read-out: IC50, Activity Toward JAK1
T2 construct: wt human JAK1, catalytic site; purchased ThermoFisher
T2 sequence (P23458 875-1153 limits assumed): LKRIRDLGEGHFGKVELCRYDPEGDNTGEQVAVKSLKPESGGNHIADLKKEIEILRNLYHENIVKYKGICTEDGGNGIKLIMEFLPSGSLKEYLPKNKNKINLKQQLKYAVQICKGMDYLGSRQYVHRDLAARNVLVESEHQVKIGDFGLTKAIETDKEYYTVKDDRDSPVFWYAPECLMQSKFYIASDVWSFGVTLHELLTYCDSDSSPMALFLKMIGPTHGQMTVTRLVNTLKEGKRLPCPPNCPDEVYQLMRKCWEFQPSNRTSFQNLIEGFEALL
Procedure, shortened: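 Compounds in DMSO dilution were mixed with kinase, biotin-TK substrate and ATP and reacted for ≥30 min at room temperature. Detection reagents (antibody, streptavidin-XL665) were read 60 min later as HTRF, with emission ratios analysed per KinEASE protocol.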

[3] = target: T3, wt human NUAK1, full length (Homo sapiens, UniProt O60285); assay: TR-FRET LanthaScreen Eu Kinase Binding Assay, NUAK1; details: read-out: IC50, Activity Toward NUAK1
T3 construct: 8 nM wt human NUAK1, full length (ThermoFisher/USA); purchased ThermoFisher
T3 sequence (O60285 1-661): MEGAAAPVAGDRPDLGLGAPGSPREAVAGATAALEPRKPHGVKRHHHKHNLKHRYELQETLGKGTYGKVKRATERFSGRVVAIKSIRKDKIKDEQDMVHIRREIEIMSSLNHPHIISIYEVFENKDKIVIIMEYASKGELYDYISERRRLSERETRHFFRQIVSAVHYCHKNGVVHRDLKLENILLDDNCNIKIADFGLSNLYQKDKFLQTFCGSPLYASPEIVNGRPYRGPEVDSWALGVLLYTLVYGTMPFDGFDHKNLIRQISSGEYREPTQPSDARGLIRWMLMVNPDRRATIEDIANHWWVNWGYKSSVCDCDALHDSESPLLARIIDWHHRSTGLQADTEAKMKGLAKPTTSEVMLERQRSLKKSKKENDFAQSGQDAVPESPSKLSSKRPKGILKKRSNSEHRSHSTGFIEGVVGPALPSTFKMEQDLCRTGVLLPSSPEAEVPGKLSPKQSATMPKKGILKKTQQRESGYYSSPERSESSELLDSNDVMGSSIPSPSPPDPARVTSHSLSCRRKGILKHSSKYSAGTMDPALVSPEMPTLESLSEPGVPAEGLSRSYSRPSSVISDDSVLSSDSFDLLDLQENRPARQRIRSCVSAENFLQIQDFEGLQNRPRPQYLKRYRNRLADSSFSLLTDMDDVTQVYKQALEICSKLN
Method: The basic protocol for TR-FRET LanthaScreen Eu Kinase Binding Assay inhibitor studies were performed as follows. LanthaScreen Kinase Binding Assays (ThermoFisher/USA) to evaluate inhibitors were performed by addition of 5 μL of test compound in corresponding DMSO dilutions/5 μl of kinase/antibody mixture, 5 μL of tracer into 384 well small volume plates. After incubation for 1 hour at room temperature, plates were read. Data analysis of emission ratios was according LanthaScreen Eu Kinase Binding Assay protocol.
Kinase and assay components were adjusted to final concentrations according to kit protocol. For LRRK2: 5 nM wt human LRRK2, catalytic site, or G2019S human LRRK2, catalytic site (ThermoFisher/USA), 2 nM Eu-Anti-GST Antibody, 10 nM Kinase Tracer 236 in 1× Kinase Buffer A. For NUAK1: 8 nM wt human NUAK1, full length (ThermoFisher/USA), 2 nM Eu-Anti-His Antibody, 5 nM Kinase Tracer 236 in 1× Kinase Buffer A.

[4] = target: T4, wt human TYK2, catalytic site (Homo sapiens, UniProt P29597); assay: HTRF KinEASE assay, TYK2; format: biochemical; details: 1 μM ATP; read-out: IC50, Activity Toward TYK2
T4 construct: wt human TYK2, catalytic site; purchased SignalChem
T4 sequence (P29597 897-1176 limits assumed): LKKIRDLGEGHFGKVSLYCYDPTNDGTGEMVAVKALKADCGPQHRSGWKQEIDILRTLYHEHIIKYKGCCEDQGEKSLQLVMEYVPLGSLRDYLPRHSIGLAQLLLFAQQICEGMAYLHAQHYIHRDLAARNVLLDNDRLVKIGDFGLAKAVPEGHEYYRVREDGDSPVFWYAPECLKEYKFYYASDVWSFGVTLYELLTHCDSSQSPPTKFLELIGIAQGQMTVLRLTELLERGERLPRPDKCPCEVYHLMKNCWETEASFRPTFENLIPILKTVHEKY
Procedure, shortened: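 Kinase reaction run at room temperature for at least 30 min: 2 nM TYK2 with 1 μM ATP, or 1 nM JAK2 with 100 μM ATP, each with 1 μM biotin-TK substrate. Phosphorylation detected by HTRF (60 min antibody/XL665) and evaluated from emission ratios.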

[5] = target: T5, wt human LRRK2, catalytic site (Homo sapiens, UniProt Q5S007); assay: TR-FRET LanthaScreen Eu Kinase Binding Assay, LRRK2 wt; details: one range stated for wt and G2019, read-out: IC50, Activity Toward LRRK2(Wt)
T5 construct: 5 nM wt human LRRK2, catalytic site; purchased ThermoFisher
T5 sequence (Q5S007 970-2527 limits assumed): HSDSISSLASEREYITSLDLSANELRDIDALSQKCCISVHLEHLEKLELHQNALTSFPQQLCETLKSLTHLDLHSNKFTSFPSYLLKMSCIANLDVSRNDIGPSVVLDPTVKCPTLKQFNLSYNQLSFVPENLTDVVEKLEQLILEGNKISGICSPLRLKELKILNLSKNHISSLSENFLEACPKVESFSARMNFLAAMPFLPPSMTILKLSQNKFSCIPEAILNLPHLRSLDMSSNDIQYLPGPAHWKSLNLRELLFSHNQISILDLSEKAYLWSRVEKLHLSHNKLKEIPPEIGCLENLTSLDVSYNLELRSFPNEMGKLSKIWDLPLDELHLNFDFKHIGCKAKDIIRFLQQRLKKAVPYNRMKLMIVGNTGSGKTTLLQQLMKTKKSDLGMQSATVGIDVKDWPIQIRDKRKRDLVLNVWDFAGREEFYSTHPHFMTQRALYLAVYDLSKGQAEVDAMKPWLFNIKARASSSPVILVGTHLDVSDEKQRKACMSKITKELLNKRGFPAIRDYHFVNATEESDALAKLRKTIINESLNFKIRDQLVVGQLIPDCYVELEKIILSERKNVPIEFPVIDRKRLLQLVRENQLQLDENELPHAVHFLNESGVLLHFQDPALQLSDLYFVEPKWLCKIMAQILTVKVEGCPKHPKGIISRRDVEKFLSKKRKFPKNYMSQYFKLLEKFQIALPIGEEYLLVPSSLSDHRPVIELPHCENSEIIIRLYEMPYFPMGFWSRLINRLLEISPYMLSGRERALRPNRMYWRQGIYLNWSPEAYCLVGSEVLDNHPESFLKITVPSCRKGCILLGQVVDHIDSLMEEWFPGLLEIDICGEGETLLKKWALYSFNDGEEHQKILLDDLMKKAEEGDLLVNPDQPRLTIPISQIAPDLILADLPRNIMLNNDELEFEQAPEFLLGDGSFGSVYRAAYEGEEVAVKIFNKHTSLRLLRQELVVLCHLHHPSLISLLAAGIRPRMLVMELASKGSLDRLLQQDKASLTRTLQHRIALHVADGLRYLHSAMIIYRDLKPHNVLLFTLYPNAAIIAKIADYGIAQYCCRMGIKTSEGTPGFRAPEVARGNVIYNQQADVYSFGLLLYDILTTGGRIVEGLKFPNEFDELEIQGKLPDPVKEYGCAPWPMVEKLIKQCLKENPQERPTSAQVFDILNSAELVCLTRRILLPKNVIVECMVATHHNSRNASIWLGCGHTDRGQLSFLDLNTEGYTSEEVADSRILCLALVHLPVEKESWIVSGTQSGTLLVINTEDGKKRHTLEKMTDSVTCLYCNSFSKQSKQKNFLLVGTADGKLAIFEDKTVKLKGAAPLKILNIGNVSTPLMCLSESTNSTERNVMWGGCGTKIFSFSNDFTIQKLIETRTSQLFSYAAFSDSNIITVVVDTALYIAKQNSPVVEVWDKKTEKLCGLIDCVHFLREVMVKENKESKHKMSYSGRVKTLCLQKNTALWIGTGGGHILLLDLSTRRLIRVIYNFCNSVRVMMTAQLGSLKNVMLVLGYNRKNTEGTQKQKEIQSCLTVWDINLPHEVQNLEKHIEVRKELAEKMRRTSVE
Procedure, shortened: as §1

T1 sequence (Q5S007 970-2527 G2019S limits assumed): as the sequence (Q5S007 970-2527 limits assumed) above, with G1050S counted along it

Row | IC50 [1] [µM] | IC50 [2] [µM] | IC50 [3] [µM] | IC50 [4] [µM] | IC50 [5] [µM] | Compound
1 | 0.01 to 0.1 | 0.1 to 1 | 0.1 to 1 | 0.01 to 0.1 | 0.01 to 0.1 | Cc1ccnnc1-c1ccc(Nc2cn(-c3c(F)cccc3Cl)nc2C(N)=O)cc1 [compound 56, 1-(2-chloro-6-fluorophenyl)-4-((4-(4-methylpyridazin-3-yl)phenyl)amino)-1H-pyrazole-3-carboxamide]
2 | 0.1 to 1 | 0.01 to 0.1 | 0.1 to 1 | < 0.01 | 0.1 to 1 | N#Cc1cn(CCO)c(-c2ccc(Nc3cn(-c4c(Cl)cccc4Cl)nc3C(N)=O)cc2)n1 [compound 361, 4-((4-(4-cyano-1-(2-hydroxyethyl)-1H-imidazol-2-yl)phenyl)amino)-1-(2,6-dichlorophenyl)-1H-pyrazole-3-carboxamide]
3 | 0.1 to 1 | 0.1 to 1 | 0.01 to 0.1 | 0.1 to 1 | 0.1 to 1 | Cc1cc(Nc2cn(-c3c(F)cccc3F)nc2C(N)=O)nc(N)n1 [compound 8, 4-((2-amino-6-methylpyrimidin-4-yl)amino)-1-(2,6-difluorophenyl)-1H-pyrazole-3-carboxamide]
4 | 0.1 to 1 | 0.01 to 0.1 | 0.1 to 1 | 0.01 to 0.1 | 0.1 to 1 | NC(=O)c1nn(-c2c(Cl)cccc2Cl)cc1Nc1ccc(C(=O)N2CC[C@@H](N)C2)cc1 [compound 318, (R)-4-((4-(3-aminopyrrolidine-1-carbonyl)phenyl)amino)-1-(2,6-dichlorophenyl)-1H-pyrazole-3-carboxamide]
5 | 0.1 to 1 | 0.01 to 0.1 | 0.1 to 1 | 0.01 to 0.1 | 0.1 to 1 | Cn1ccnc1-c1ccc(Nc2cn(-c3c(Cl)cccc3Cl)nc2C(N)=O)cc1 [compound 225, 1-(2,6-dichlorophenyl)-4-((4-(1-methyl-1H-imidazol-2-yl)phenyl)amino)-1H-pyrazole-3-carboxamide]
6 | 0.1 to 1 | 0.01 to 0.1 | 0.1 to 1 | 0.01 to 0.1 | 0.1 to 1 | CN(C)C1CCN(C(=O)c2ccc(Nc3cn(-c4c(Cl)cccc4Cl)nc3C(N)=O)cc2)C1 (centres unmarked) [compound 248, 1-(2,6-dichlorophenyl)-4-((4-(3-(dimethylamino)pyrrolidine-1-carbonyl)phenyl)amino)-1H-pyrazole-3-carboxamide]
7 | 0.1 to 1 | 0.1 to 1 | 0.1 to 1 | 0.01 to 0.1 | 0.1 to 1 | CC(C)(C)OC(=O)NC1CCN(C(=O)c2ccc(Nc3cn(-c4c(Cl)cccc4Cl)nc3C(N)=O)cc2)C1 (centres unmarked) [compound 323, tert-butyl_(1-(4-((3-carbamoyl-1-(2,6-dichlorophenyl)-1H-pyrazol-4-yl)amino)benzoyl)pyrrolidin-3-yl)carbamate]
8 | 0.1 to 1 | 0.1 to 1 | 0.1 to 1 | 0.01 to 0.1 | 0.1 to 1 | NC(=O)c1nn(-c2c(F)cccc2Cl)cc1Nc1ccc(C(=O)N2CC3(CCC3)C2)cc1 [compound 54, 4-((4-(2-azaspiro[3.3]heptane-2-carbonyl)phenyl)amino)-1-(2-chloro-6-fluorophenyl)-1H-pyrazole-3-carboxamide]
9 | 0.1 to 1 | 0.1 to 1 | 0.1 to 1 | 0.01 to 0.1 | 0.1 to 1 | Cc1ccnnc1-c1ccc(Nc2cn(-c3c(F)cccc3F)nc2C(N)=O)cc1 [compound 296, 1-(2,6-difluorophenyl)-4-((4-(4-methylpyridazin-3-yl)phenyl)amino)-1H-pyrazole-3-carboxamide]
10 | 0.01 to 0.1 | 0.01 to 0.1 | 0.1 to 1 | 0.01 to 0.1 | 0.01 to 0.1 | NC(=O)c1nn(-c2c(F)cccc2Cl)cc1Nc1ccc(-n2ncc3c2CCOC3)cc1 [compound 208, 1-(2-chloro-6-fluorophenyll)-4-((4-(6,7-dihydropyrano[4,3-c]pyrazol-1(4H)-yl)phenyl)amino)-1H-pyrazole-3-carboxamide]

Reference: patent US20230373985A1 (Origenis Gmbh, priority 2020, published 2023)
